Laboratory results: patent US20120041070A1, “METHODS OF TREATING CANCER HAVING AN ABERRANT EGFR OR KRAS GENOTYPE” (priority 2009, published 2012)
Read-outs that look alike come from different tables or passages of the source. Blank lines part the entries; values can stand above or below the compound they belong to.

Assays:
[1] = test system: HME-TERT parental (wild type) cells; assay: MTS cell proliferation assay, control HME parental (WT) cells; assay type: cell-based; details: Homo sapiens, 0.5% FBS, read-out: Inhibition of cell proliferation: EC50, WT
Method: (§1) To investigate the effect of phenformin on proliferation of cells carrying an EGFR mutation, HME cell proliferation assays were performed. An isogenic HME-TERT cell line carrying a mutation in EGFR (del E746-A750) was generated by a “knock in” approach. HME-TERT-EGFR (del E746-A750) cells and control HME parental cells were cultured in DMEM/F12K (glucose 17 mM, glutamine 2.5 mM) with 0.5% FBS, and were treated with a series of dilution of Paclitaxel (100 nM top concentration, 3-fold dilution), Phenformin (3 mM top concentration, 3-fold dilution), or metformin (10 mM top concentration, 3-fold dilution), in duplication or triplication. MTS assays were performed 48, 72, 96 or 120 hours after drug treatment. MTS assay is a colorimetric assay for determining the number of viable cells (see, e.g., Cory A H et al., 1991, Cancer communications 3 (7): 207-12, and Wilson, A P, Cytotoxicity and Viability Assays in Animal Cell Culture: A Practical Approach, 3rd ed. (ed. Masters, J. R. W.) Oxford University Press, 2000, Vol. 1). […] Z′ is defined as Z′=1-3(MAX stdev−background stdev)/(MAX−background). A Z′ value greater than 0.4 is acceptable for cell assays, and a Z′ value greater than 0.6 is acceptable for enzyme assays.
(§2) To investigate the effect of phenformin on proliferation of cells carrying a KRAS mutation, HME cell proliferation assays were performed. An isogenic HME-TERT cell line carrying a mutation in KRAS (G13D) was generated by a “knock in” approach. HME-TERT-KRAS (G13D) cells and control HME parental cells were cultured in DMEM/F12K (glucose 17 mM, glutamine 2.5 mM) with 0.5% FBS, and were treated with a series of dilution of Paclitaxel (100 nM top concentration, 3-fold dilution), Phenformin (3 mM top concentration, 3-fold dilution), or metformin (10 mM top concentration, 3-fold dilution), in duplication or triplication. MTS assays were performed 48, 72, 96 or 120 hours after drug treatment. MTS assay is a colorimetric assay for determining the number of viable cells (see, e.g., Cory A H et al., 1991, Cancer communications 3 (7): 207-12, and Wilson, A P, Cytotoxicity and Viability Assays in Animal Cell Culture: A Practical Approach, 3rd ed. (ed. Masters, J. R. W.) Oxford University Press, 2000, Vol. 1). […] Z′ is defined as Z′=1-3(MAX stdev−background stdev)/(MAX−background). A Z′ value greater than 0.4 is acceptable for cell assays, and a Z′ value greater than 0.6 is acceptable for enzyme assays.

[2] = test system: HME-TERT-KRAS (G13D) cells; assay: MTS cell proliferation assay, HME-TERT cells carrying KRAS mutation; assay type: cell-based, human; details: for EC50: Homo sapiens, HME-TERT-KRAS (G13D), MTS, 0.5% FBS, read-out: Inhibition of cell proliferation: EC50, KRAS
Method: as §2

[3] = test system: HME-TERT-EGFR (del E746-A750) cells; assay: MTS cell proliferation assay, HME-TERT cells carrying EGFR mutation; assay type: cell-based, human; details: for EC50: Homo sapiens, HME-TERT-EGFR (del E746-A750), MTS, 0.5% FBS, read-out: Inhibition of cell proliferation: EC50, EGFR
Method: as §1

[4] = test system: A549 NSCL (KRAS mutant) cells; assay: A549 cell proliferation assay (Cell TiterGlow, total ATP); assay type: cell-based; details: for EC50: Homo sapiens, A549, DMEM 10% FBS, 72 hours, Cell TiterGlow, read-out: EC50, inhibition of A549 cell proliferation
Method: To investigate the effect of phenformin on proliferation of a commonly used cancer cell line A549 NSCL (KRAS mutant), a cell proliferation assay was performed. A549 cells were grown in DMEM with 10% FBS, and were treated with designated concentrations (phenformin dose range 0-100 μM; metformin dose range 0-3000 μM) of drugs for 72 hours. Cell viability was determined with Cell TiterGlow to measure total ATP content in live cells.

EC50 [4]: 650 µM
Compound: CN(C)C(=N)N=C(N)N [metformin]
EC50 ([1]; 48 h after drug treatment): > 3000 µM
EC50 ([1]; 72 h after drug treatment): > 3000 µM
EC50 ([1]; 96 h after drug treatment): > 3000 µM
EC50 ([1]; 120 h after drug treatment): > 3000 µM
EC50 ([2]; 48 h): > 3000 µM
EC50 ([2]; 72 h): > 3000 µM
EC50 ([2]; 96 h): > 3000 µM
EC50 ([2]; 120 h): > 3000 µM
EC50 ([3]; 48 h): > 3000 µM
EC50 ([3]; 72 h): > 3000 µM
EC50 ([3]; 96 h): > 3000 µM
EC50 ([3]; 120 h): > 3000 µM

EC50 [4]: 5 µM
Compound: N=C(N)NC(=N)NCCc1ccccc1 [phenformin]
EC50 ([1]; 48 h after drug treatment): 2090 µM
EC50 ([1]; 72 h after drug treatment): 1690 µM
EC50 ([1]; 96 h after drug treatment): 1140 µM
EC50 ([1]; 120 h after drug treatment): 626 µM
EC50 ([2]; 48 h): 1640 µM
EC50 ([2]; 72 h): 1250 µM
EC50 ([2]; 96 h): 727 µM
EC50 ([2]; 120 h): 440 µM
inhibition of proliferation of KRAS mutated HME cells compared with wild type cells ([2]; MTS assay, result in words): more than that of wild type cells
EC50 ([3]; 48 h): 1680 µM
EC50 ([3]; 72 h): 632 µM
EC50 ([3]; 96 h): 486 µM
EC50 ([3]; 120 h): 393 µM
inhibition of proliferation of EGFR mutated HME cells compared with wild type cells ([3]; MTS assay, result in words): more than that of wild type cells
fold more sensitive than metformin in inhibiting the proliferation of A549 cells ([4]; A549, 72 hours, ratio of EC50 values): about 112 fold
